Assay results published in US10934280B2, “Condensed thiophene derivatives useful as NaPi-IIb inhibitors” (Eli Lilly and Company, priority 2016, dated 2021).

Legend:
murine NaPi-IIb = biological target: T1, murine NaPi-IIb (Mus musculus, UniProt Q9DBP0); assay: Inhibition of 33P uptake in mouse NaPi-IIb T-REX-CHO stable cell line; format: cell-based; conditions: 60 min at RT, geometric mean (SD), read-out: m NaPi-IIb rel IC50 (nM), (SD)
T1 construct: expressed in transfected cells
T1 sequence (Q9DBP0 1-697): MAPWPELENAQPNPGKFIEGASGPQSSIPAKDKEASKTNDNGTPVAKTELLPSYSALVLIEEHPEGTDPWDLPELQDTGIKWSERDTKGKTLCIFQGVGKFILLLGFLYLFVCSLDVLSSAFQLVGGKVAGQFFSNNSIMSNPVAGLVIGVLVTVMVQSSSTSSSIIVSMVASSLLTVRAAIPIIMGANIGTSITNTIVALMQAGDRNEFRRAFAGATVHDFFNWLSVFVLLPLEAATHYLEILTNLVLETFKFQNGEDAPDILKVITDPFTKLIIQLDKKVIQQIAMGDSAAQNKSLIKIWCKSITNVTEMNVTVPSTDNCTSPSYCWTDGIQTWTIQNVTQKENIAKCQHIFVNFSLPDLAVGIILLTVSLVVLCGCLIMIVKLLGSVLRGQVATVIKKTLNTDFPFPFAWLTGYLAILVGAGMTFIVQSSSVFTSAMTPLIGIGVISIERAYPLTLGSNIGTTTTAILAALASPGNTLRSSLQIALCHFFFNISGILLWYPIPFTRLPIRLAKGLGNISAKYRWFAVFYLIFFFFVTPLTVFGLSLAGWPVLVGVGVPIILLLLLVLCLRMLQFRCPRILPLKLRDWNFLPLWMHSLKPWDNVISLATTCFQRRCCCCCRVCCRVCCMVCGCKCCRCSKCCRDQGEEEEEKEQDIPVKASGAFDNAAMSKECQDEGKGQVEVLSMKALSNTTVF
Description: Inhibition of ^33P uptake is measured in human and mouse NaPi-IIb T-REX™-CHO stable cell lines. cDNA for NaPi-IIb is subcloned in plasmid SLC34A2 pcDNA5/TO (human) and SLC34A2 pcDNA5/TO (mouse) and stable cell lines are generated from clonal isolation for both human and mouse respectively. Mouse and human stable lines are maintained in continuous culture in growth media (Dulbecco's Modified Eagle Medium: Nutrient Mixture F-12 (3:1), 10% Heat Inactivated FBS, 1% penicillin/streptomycin/FUNGIEZONE® (HYCLONE™), 20 mM HEPES, 250 μg/mL hygromycin, 5 μg/mL blasticidin). Cells are harvested from T225 cell culture flasks (CORNING®) using 0.25% Trypsin, and plated in 96 well CYTOSTAR-T™ scintillating microplates (Amersham Systems) at 40,000 cells/well in 100 μL of growth media plus 100 ng/mL of tetracycline. Cell plates are incubated overnight at 37° C. and 5% C02. The next day, compounds are serially diluted using one to three dilutions in 100% DMSO. Cell plates may remain in the incubator until ready to be assayed. A cell plate is removed from the incubator and media removed. Cells are washed 3 times with 200 μL assay buffer (137 mM NaCl, 5.4 mM KCl, 2.8 mM CaCl2), 1.2 mM MgSO4, and 14 mM Tris-HCl buffer, pH˜7.5), removing buffer in between washes. Serially diluted compounds in DMSO are further diluted 50 fold in assay buffer and 50 μL added to the CYTOSTAR-T™ assay plate, immediately followed by the addition of 50 μL of ^33P solution (PERKIN-ELMER®, Walton, Mass.; 0.05 μCi/50 μL). CYTOSTAR-T™ assay plates are covered with foil to protect from light and incubated for 60 min at RT. After the 60 min incubation, 100 μL of a stop solution (assay buffer+400 μM Phloretin) is added to the assay plate to stop ^33P uptake. The plate is immediately read on a Wallac MICROBETA® Trilux liquid scintillation counter and luminometer after stop solution is added with 1 minute count per well. Each plate may be processed separately and staggered in time so there may be no delay in counting after stop solution is added. Percent inhibition at all concentrations tested (final assay concentrations 100-0.005 μM) are calculated relative to 1% DMSO (minimum effect), and the effect of 100 μM of a fully efficacious NaPi-IIb inhibitor (maximum effect). IC50 values were calculated using a 4 parameter logistic curve fitting equation. The numbers presented are the geometric means with standard deviation (SD) calculated where n is the number of runs. Thus. Table 1 describes the relative IC50 values for Examples 1-28 against human NaPi-IIb and murine NaPi-IIb, respectively.

human NaPi-IIb = biological target: T2, human NaPi-IIb (Homo sapiens, UniProt O95436); assay: Inhibition of 33P uptake in human NaPi-IIb T-REX-CHO stable cell line; format: cell-based; conditions: 60 min at RT, geometric mean (SD), read-out: h NaPi-IIb rel IC50 (nM), (SD)
T2 construct: expressed in transfected cells
T2 sequence (O95436 1-690): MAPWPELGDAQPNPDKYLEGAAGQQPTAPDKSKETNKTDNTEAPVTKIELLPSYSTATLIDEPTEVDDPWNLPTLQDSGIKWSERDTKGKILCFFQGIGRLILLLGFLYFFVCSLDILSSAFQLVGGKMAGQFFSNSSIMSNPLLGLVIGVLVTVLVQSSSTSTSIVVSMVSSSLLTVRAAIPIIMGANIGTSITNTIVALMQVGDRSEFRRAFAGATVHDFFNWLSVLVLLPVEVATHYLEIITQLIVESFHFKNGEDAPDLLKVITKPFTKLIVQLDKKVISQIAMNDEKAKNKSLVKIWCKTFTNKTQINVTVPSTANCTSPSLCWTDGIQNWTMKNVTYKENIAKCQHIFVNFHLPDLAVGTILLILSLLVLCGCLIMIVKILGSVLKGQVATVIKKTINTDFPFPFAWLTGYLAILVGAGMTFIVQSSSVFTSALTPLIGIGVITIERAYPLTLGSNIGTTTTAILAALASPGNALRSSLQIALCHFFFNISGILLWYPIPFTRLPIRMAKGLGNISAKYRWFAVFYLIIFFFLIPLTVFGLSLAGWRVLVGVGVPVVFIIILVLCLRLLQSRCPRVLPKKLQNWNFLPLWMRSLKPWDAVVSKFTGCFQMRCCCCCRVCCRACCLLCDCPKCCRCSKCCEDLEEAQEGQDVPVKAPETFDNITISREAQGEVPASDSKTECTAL
Description: Inhibition of ^33P uptake is measured in human and mouse NaPi-IIb T-REX™-CHO stable cell lines. cDNA for NaPi-IIb is subcloned in plasmid SLC34A2 pcDNA5/TO (human) and SLC34A2 pcDNA5/TO (mouse) and stable cell lines are generated from clonal isolation for both human and mouse respectively. Mouse and human stable lines are maintained in continuous culture in growth media (Dulbecco's Modified Eagle Medium: Nutrient Mixture F-12 (3:1), 10% Heat Inactivated FBS, 1% penicillin/streptomycin/FUNGIEZONE® (HYCLONE™), 20 mM HEPES, 250 μg/mL hygromycin, 5 μg/mL blasticidin). […] Cell plates may remain in the incubator until ready to be assayed. […] The plate is immediately read on a Wallac MICROBETA® Trilux liquid scintillation counter and luminometer after stop solution is added with 1 minute count per well. […] Percent inhibition at all concentrations tested (final assay concentrations 100-0.005 μM) are calculated relative to 1% DMSO (minimum effect), and the effect of 100 μM of a fully efficacious NaPi-IIb inhibitor (maximum effect). IC50 values were calculated using a 4 parameter logistic curve fitting equation. The numbers presented are the geometric means with standard deviation (SD) calculated where n is the number of runs. […]

Structure (SMILES): CN1CCN(CC(=O)N2C3CCC2CN(Cc2cccc(C(=O)Nc4sc5c(c4C(=O)Nc4cc(F)c(CCc6ccc(C(=O)O)cc6)c(F)c4)CCCC5)c2)C3)CC1 [Example 26, 4-[2-[2,6-difluoro-4-[[2-[[3-[[8-[2-(4-methylpiperazin-1-yl)acetyl]-3,8-diazabicyclo[3.2.1]octan-3-yl]methyl]benzoyl]amino]-4,5,6,7-tetrahydrobenzothiophene-3-carbonyl]amino]phenyl]ethyl]benzoic Acid]
- IC50 (murine NaPi-IIb): 15.3 nM
- IC50 (human NaPi-IIb): 2.4 nM
